Source: patent US12404289B2 (Gilead Sciences, Inc., priority 2020, dated 2025)
Where two headings read alike, the source gives them in different places.

Experiments:
[1] = system: Respiratory syncytial virus (RSV) strain A2; test: RSV antiviral assay (HEp-2, 96 well); format: cell-based; details: human respiratory syncytial virus, HEp-2, 96 h
[2] = CC50 assay (cytopathology in HEp-2 cells); format: cell-based; details: human, HEp-2 cells, 4 days, CellTiter-Glo, read-out: RSV CC50
Procedure: The cytopathology of compounds in HEp-2 cells is determined in the following manner. HEp-2 cells are suspended in DMEM+GlutaMAX (supplemented with 10% FBS and 1% Penicillin/Streptomycin) and seeded into 96 well plates (3×10^3/well). After a 4-hour incubation at 37° C.+5% CO2, three-fold serial dilutions of compounds are added to each well using an HP D300e digital dispenser. The cells are then incubated for 4 days at 37° C. and 5% CO2. The final volume in each well is 200 μL. Untreated wells are included as controls for 100% cell viability, while compounds treated with 5 uM puromycin are included as controls for 0% viability. Following the incubation, 100 μL of culture supernatant is removed from each well and replaced with 100 μL of CellTiter-Glo reagent (Promega, Madison, WI, Cat #G7573). The plates are then rocked for 2 minutes followed by a 10-minute incubation at 25° C. Compound-induced cytopathic effect is then assessed by measuring luminescence signal using and Envision plate reader. Values are normalized to the untreated DMSO and puromycin-treated controls (as 100% and 0% viability, respectively) and data is fit using non-linear regression analysis using XLfit4. The CC50 value for each compound is then determined as the concentration reducing cell viability by 50%.

[3] = read-out: EC50-RSV-HEP-2-96, HEp-2 cells, RSV A2, MOI=4, 4 days, 96 well, CellTiter-Glo, Table 1
[4] = read-out: EC50-RSV-HEP-2-96, HEp-2 cells, RSV A2, MOI=4, 4 days, 96 well, Table 2

CCC(=O)O[C@H]1[C@@H](OC(=O)CC)[C@](C#N)(c2ccc3c(N)ncnn23)O[C@@H]1CO[P@@](=O)(N[C@@H](C)C(=O)OC)Oc1ccccc1 [Example 5, (2R,3R,4R,5R)-2-(4-aminopyrrolo[2,1-f][1,2,4]triazin-7-yl)-2-cyano-5-((((S)—(((S)-1-methoxy-1-oxopropan-2-yl)amino)(phenoxy)phosphoryl)oxy)methyl) tetrahydrofuran-3,4-diyl Dipropionate]
EC50 [1, 3]: 109 nM
CC50 at 4 days ([2]; Table 1): 9540 nM

COC(=O)[C@H](C)N[P@](=O)(OC[C@H]1O[C@@](C#N)(c2ccc3c(N)ncnn23)[C@H](O)[C@@H]1O)Oc1ccccc1
EC50 [1, 4]: 144 nM
CC50 at 4 days ([2]; Table 2): 48500 nM

COC(=O)[C@H](C)N[P@](=O)(OC[C@H]1O[C@@](C#N)(c2ccc3c(N)ncnn23)[C@H](OC(=O)C(C)C)[C@@H]1OC(=O)C(C)C)Oc1ccccc1 [Example 4, (2R,3R,4R,5R)-2-(4-aminopyrrolo[2,1-f][1,2,4]triazin-7-yl)-2-cyano-5-((((S)—(((S)-1-methoxy-1-oxopropan-2-yl)amino)(phenoxy)phosphoryl)oxy)methyl)tetrahydrofuran-3,4-diyl bis(2-methylpropanoate)]
EC50 [1, 3]: 93.9 nM
CC50 at 4 days ([2]; Table 1): 5580 nM

CC(C)OC(=O)[C@H](C)N[P@](=O)(OC[C@H]1O[C@@](C#N)(c2ccc3c(N)ncnn23)[C@H](O)[C@@H]1O)Oc1ccccc1
EC50 [1, 4]: 364 nM
CC50 at 4 days ([2]; Table 2): > 9600 nM

CCC(=O)O[C@H]1[C@@H](OC(=O)CC)[C@](C#N)(c2ccc3c(N)ncnn23)O[C@@H]1CO[P@@](=O)(N[C@@H](C)C(=O)OC(C)C)Oc1ccccc1 [Example 8, (2R,3R,4R,5R)-2-(4-aminopyrrolo[2,1-f][1,2,4]triazin-7-yl)-2-cyano-5-((((S)—(((S)-1-isopropoxy-1-oxopropan-2-yl)amino)(phenoxy)phosphoryl)oxy)methyl) tetrahydrofuran-3,4-diyl Dipropionate]
EC50 [1, 3]: 156 nM
CC50 at 4 days ([2]; Table 1): > 40000 nM

COC(=O)[C@H](C)N[P@](=O)(OC[C@H]1O[C@@](C#N)(c2ccc3c(N)ncnn23)[C@H](OC(C)=O)[C@@H]1OC(C)=O)Oc1ccccc1 [Example 6, (2R,3R,4R,5R)-2-(4-aminopyrrolo[2,1-f][1,2,4]triazin-7-yl)-2-cyano-5-((((S)—(((S)-1-methoxy-1-oxopropan-2-yl)amino)(phenoxy)phosphoryl)oxy)methyl) tetrahydrofuran-3,4-diyl Diacetate]
EC50 [1, 3]: 193 nM
CC50 at 4 days ([2]; Table 1): 26400 nM

CCOCCOCCOC(=O)[C@H](C)NP(=O)(OC[C@H]1O[C@@](C#N)(c2ccc3c(N)ncnn23)[C@H](OC(=O)C(C)C)[C@@H]1OC(=O)C(C)C)Oc1ccccc1 (stereo partly drawn) [Example 23, (2R,3R,4R,5R)-2-(4-Aminopyrrolo[2,1-f][1,2,4]triazin-7-yl)-2-cyano-5-((((((S)-1-(2-(2-ethoxyethoxy)ethoxy)-1-oxopropan-2-yl)amino)(phenoxy)phosphoryl)oxy)methyl)tetrahydrofuran-3,4-diyl bis(2-methylpropanoate)]
EC50 [1, 3]: 75.9 nM
CC50 at 4 days ([2]; Table 1): 5640 nM

CCC(CC)COC(=O)[C@H](C)NP(=O)(OC[C@H]1O[C@@](C#N)(c2ccc3c(N)ncnn23)[C@H](O)[C@@H]1O)Oc1c(C)cccc1C (stereo partly drawn) [Example 19, 2-Ethylbutyl ((((2R,3S,4R,5R)-5-(4-aminopyrrolo[2,1-f][1,2,4]triazin-7-yl)-5-cyano-3,4-dihydroxytetrahydrofuran-2-yl)methoxy)(2,6-dimethylphenoxy)phosphoryl)-L-alaninate]
EC50 [1, 3]: 687 nM
CC50 at 4 days ([2]; Table 1): 26500 nM

CCOCCOCCOC(=O)[C@H](C)NP(=O)(OC[C@H]1O[C@@](C#N)(c2ccc3c(N)ncnn23)[C@H](O)[C@@H]1O)Oc1ccccc1 (stereo partly drawn) [Example 22, 2-(2-Ethoxyethoxy)ethyl ((((2R,3S,4R,5R)-5-(4-aminopyrrolo[2,1-f][1,2,4]triazin-7-yl)-5-cyano-3,4-dihydroxytetrahydrofuran-2-yl)methoxy)(phenoxy)phosphoryl)-L-alaninate]
EC50 [1, 3]: > 4720 nM
CC50 at 4 days ([2]; Table 1): > 50000 nM
